# From patent US6784184B2, “5-(arylsulfonyl)-,5-(arylsulfinyl), and 5-(arylsulfanyl)-thiazolidine-2,4-diones useful for inhibition of farnesyl-protein transferase” (Wyeth Holdings Corporation, priority 2001, dated 2004)
# pIC50: −log10 of the molar value.
# Experiments:
# FPTase (K-Ras substrate) = FPTase (K-Ras substrate) (UniProt P29702+P49355); test: in vitro FTase Inhibition Assay, K-Ras as substrate for farnesylation; format: biochemical; conditions: K-Ras used as substrate for farnesylation
# How it was run: (§1)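 His6-Ras substrate ([…]) with 10 ng FPTase in 50 mM Tris pH 7.5, ZnCl2, MgCl2, KCl, DTT, 0.2% octyl-β-glucoside, 1% DMSO; incubated 30-90 min. TCA/SDS-precipitated Ras filtered, 3H-FPP incorporation counted; % inhibition from background-corrected cpm versus no-compound control.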
# FPTase (H-Ras substrate) = FPTase (H-Ras substrate) (UniProt P29702+P49355); test: in vitro FTase Inhibition Assay, H-Ras as substrate for farnesylation; format: biochemical; conditions: H-Ras used as substrate for farnesylation
# How it was run: as §1
# [1] = system: K-ras dependent human colon carcinoma (LoVo); test: In vivo effects against K-ras dependent human colon carcinoma (LoVo); conditions: rats; for S/T = No. Survivors/No.Treated: Day +35 post tumor cell implantation
# Protocol: Compounds of this invention were tested for in vivo effects in rats against various tumors. For the compound of Example 114, when tested against a K-ras dependent human colon carcinoma (LoVo), the following results were obtained (Table II): […]
structure (smiles),measurement,setting,value
"COc1ccc(S(=O)(=O)C2(CCCC#Cc3cc(Cl)ccc3Cl)SC(=O)NC2=O)cc1 (centres unmarked) [Example 114, 5-[5-(2,5-Dichloro-phenyl)pent-4-ynyl]-5-(4-methoxy-benzenesulfonyl)-thiazolidine-2,4-dione]",pIC50,FPTase (K-Ras substrate),6.49 to 7.49
same,pIC50,FPTase (H-Ras substrate),7.49 to 7.89
same,Mean Tumor Weight,"[1]; Day 8, 75* mg/kg IP, BID days 1-20, prepared in 2% Tween 80 in D5W, vs 2% Tween in D5W",86 mg
same,% T/C,"[1]; Day 15, 75* mg/kg IP, BID days 1-20, prepared in 2% Tween 80 in D5W, vs 2% Tween in D5W",150%
same,S/T = No. Survivors/No.Treated,"[1]; 50 mg/kg IP, BID days 1-20, Methocel/Tween 80 series",5/10
same,S/T = No. Survivors/No.Treated,"[1]; 75 mg/kg IP, BID days 1-20, Methocel/Tween 80 series",8/10
same,S/T = No. Survivors/No.Treated,"[1]; 100 mg/kg IP, once a day days 1-20, Methocel/Tween 80 series",9/10
same,S/T = No. Survivors/No.Treated,"[1]; 100 mg/kg PO, BID days 1-20, 20% BCD in 0.1 N HCl series",9/10
